In patent publication US20240115550A1, “TREATMENT OF MENTAL DISORDERS” (GH Research Ireland Limited, priority 2022, published 2024):
Values joined by “and” are separate entries in the source; they are usually repeats but may differ in a detail not shown here. Equal entries are not always repeated.

Columns and labels:
human plasma protein = assay: Plasma binding of 5-MIAA; format: in vitro ADME
Protocol: Binding to human plasma protein was determined. Reported are the unbound fraction (fu) for three replicates as well as the mean unbound fraction, the standard deviation and the mean % recovery (Table 8).

[1] = system: human hepatocytes (Hμrel HumanPool co-culture); assay: Metabolic stability in Hμrel human hepatocyte co-culture; format: in vitro ADME
Protocol: The incubations were performed using 1 and 10 μM initial concentrations and sampling at 0, 1, 2, 4, 8, 24, 48, and 72 hours (h) time points. The samples were analysed using UPLC/QE-orbitrap-MS.

[2] = LC-MS/MS of 5-MeO-DMT and metabolites in breastmilk, serum and urine of a lactating PPD patient
[3] = Infant exposure estimate (DID, RID) from breast milk concentrations
[4] = system: Escherichia coli (WP2 uvrA pKM101); assay: Bacterial mutation test, Escherichia coli; format: cell-based; settings: up to 5000 μg/plate, absence and presence of S-9
Protocol: (§1) These conditions included treatments at concentrations up to 5000 μg/plate (the maximum recommended concentration according to current regulatory guidelines), in the absence and in the presence of a rat liver metabolic activation system (S-9).

[5] = system: patients with postpartum depression (PPD); assay: Clinical trial of inhaled 5-MeO-DMT in postpartum depression; format: in vivo, human; settings: for MADRS response (>=50% improvement) and remission (total <=10): 6 mg then 12 mg
Protocol: The single-arm, open-label clinical trial will involve 15 adult female patients with clinically diagnosed postpartum depression (PPD).
The second dose (12 mg) will only be administered if: • a. A peak experience (total score of ≥75) has not been achieved following the 6 mg dose, and • b. The 6 mg dose was safe and well-tolerated according to the investigator, • c. Any psychoactive effects (PsE) of the prior dose have subsided, and • d. Pre-dose vital parameters and forced expiratory volume in one second (FEV1) are in normal range, or if outside of the normal range, are not clinically significant according to the investigator. • 3. Similarly, a third dose (18 mg) will only be administered if: • a. A peak experience (total score of ≥75) has not been achieved following the 12 mg dose, and • b. The 12 mg dose was safe and well-tolerated according to the investigator, and • c. Any PsE of the prior dose have subsided, and • d. Pre-dose vital parameters and forced expiratory volume in one second (FEV1) are in normal range, or if outside of the normal range, are not clinically significant according to the investigator.
The patients will be assessed for a peak psychedelic experience (based on a patient-scored visual analogue scale, the PE scale), sedation, and other endpoints after dosing. Follow-up visits are planned for Day 1, and Day 7 after the dosing day.
The following criteria must be met by all patients considered for clinical trial participation: • 1. Is female and in the age range between 18 and 45 years (inclusive) at screening. • 2. Has a body mass index (BMI) in the range of 18.5 and 35 kg/m^2 (inclusive) at screening. • 3. Meets the trial criteria for PPD as assessed by a trial psychiatrist or registered psychologist: • a. Diagnosis of Major Depressive Disorder without psychotic features, confirmed by the Mini-International Neuropsychiatric Interview (MINI), with peri-partum onset that began no earlier than gestation and no later than the first 4 weeks postpartum. • b. Has a Montgomery-Åsberg Depression Rating Scale (MADRS) total score of equal to or greater than 28 at screening and pre-dose on Day 0. • 6. […] Patients must have a negative pregnancy test at screening and on the pre-test day (Day −1). • 5. Is willing to delay start of other antidepressant or anxiety medication until after the end of the trial at Day 7 and agrees to keep any psychotherapy unchanged during the trial.
A potential patient who meets any of the following key exclusion criteria will be excluded from participation in this trial: • 1. Has, based on history, psychiatric assessment, and evaluation of the MINI, a current or prior diagnosis of bipolar disorder, a manic or hypomanic episode, a psychotic disorder, Major Depressive Disorder (MDD) or other mood disorder with psychotic features, obsessive compulsive disorder, post-traumatic stress disorder (PTSD), autism spectrum disorder, borderline personality disorder, schizophrenia, delusional disorder, paranoid personality disorder, schizoaffective disorder, clinically significant intellectual disability, or any other psychiatric comorbidity that renders the patient unsuitable for the trial according to the investigator's judgment. • 2. Has one or more first or second degree relatives with a current or previously diagnosed bipolar disorder, psychotic disorder or other mood disorder (including MDD) with psychotic features. • 3. Is in the judgement of a trial psychiatrist or registered psychologist, at significant risk for suicide based on history, psychiatric assessment, and evaluation of suicidal ideation and suicidal behaviour based on the Columbia-Suicide Severity Rating Scale (C-SSRS). • 4. Has taken anti-depressive medication within 14 days or 5 half-lives (whichever is longer) prior to dosing (exception: within the last 5 weeks in the case of fluoxetine). • 5.

[6] = Pharmacokinetics after single inhaled dose; format: in vivo, human
[7] = system: Salmonella typhimurium (TA98, TA100, TA1535 and TA1537); assay: Bacterial mutation test, Salmonella typhimurium; format: cell-based; settings: up to 5000 μg/plate, absence and presence of S-9
Protocol: as §1

[8] = 2.5 hours after last 5-MeO-DMT dose
[9] = female, human, breast milk, inhaled

Compound: 5-methoxyindole acetic acid [5-MIAA]
- plasma binding (human plasma protein; from mean fraction unbound): ~50%
- Mean % Recovery (human plasma protein; human plasma): 81.4%
- unbound fraction (fu), Replicate 1 (human plasma protein; human plasma): 0.499
- unbound fraction (fu), Replicate 2 (human plasma protein; human plasma): 0.462
- unbound fraction (fu), Replicate 3 (human plasma protein; human plasma): 0.544
- Mean fu (human plasma protein; human plasma, three replicates): 0.502
- remaining abundance ([1]; after 72h with hepatocytes, 1 and 10 μM): 75-82%
- in vitro intrinsic clearance ([1]; human hepatocytes, 1 μM): 0.15 μl/min/million cells
- urine concentration, times higher than in serum ([2]; 5-MIAA at 2.5 hours): approx. 127 times
- 5-MIAA concentration in breast milk ([2]; 1 hour after last 5-MeO-DMT dose): 13945.2
- 5-MIAA concentration in breast milk [2, 8]: 13240.9
- 5-MIAA urine concentration [2, 8]: 12
- 5-MIAA concentration in breast milk ([2]; 8.5 hours after last 5-MeO-DMT dose): 359.4
- DID per kg ([3]; 5 kg infant): 0.001377 mg/kg/day
- total exposure of the infant (DID) ([3]; three feeds of 250 ml): 0.006886 mg 5-MIAA/day

Compound: COc1ccc2[nH]cc(CCN(C)C)c2c1 [5-MeO-DMT]
- mutation induction [4]: did not induce mutation
- MADRS response (>=50% improvement) and remission (total <=10) ([5]; first PPD patient): fulfilled standard criteria
- BIMF management domain, percentage improvement ([5]; first PPD patient, Day 7): 18%
- BIMF self-care domain, percentage improvement ([5]; first PPD patient, Day 7): 44%
- adverse events ([5]; first PPD patient: cramping left abdominal pain and headache, Day 0): mild, short-lasting and resolved spontaneously
- MADRS item score ([5]; first PPD patient, Day 1, as E149): 0
- BPRS item score ([5]; first PPD patient, Day 1, rows as E155): 1
- BPRS item score ([5]; first PPD patient, Day 7, rows as E155): 1
- BPRS item score ([5]; first PPD patient, Discharge, item by row: r24 Somatic Concern, r25 Anxiety, r26 Emotional withdrawal, r28 Conceptual disorganization, r30 Guilt feelings, r31 Tension, r32 Mannerisms and Posturing, r34 Grandiosity, r35 Depressive Mood, r36 Hostility, r37 Suspiciousness, r38 Hallucinatory behaviour, r40 Motor retardation, r41 Uncooperativeness, r42 Unusual Thought Content, r44 Blunted affect, r45 E): 1
- MADRS response (>=50% improvement) and remission (total <=10) ([5]; second PPD patient): fulfilled standard criteria
- adverse events ([5]; second PPD patient: vomiting Day 0, headache Day 5): mild, short-lasting and resolved spontaneously
- detectability in plasma ([6]; 3 hours after inhalation): no longer detectable
- accumulation upon repeated administration ([6]; repeated within 1 to 4 hours): No accumulation
- mutation induction [7]: did not induce mutation
- detection in breast milk ([2]; after 24 hours): did not detect
- concentration at 2.5 h [2, 9]: 561 µg/mL
- concentration at 8.5 h [2, 9]: 42.1 µg/mL
- Daily Infant Dosage (DID) per kg ([3]; 5 kg infant): 0.0001385 mg/kg/day

Compound: COc1ccc2[nH]cc(CCO)c2c1 [5-methoxytryptophol, 5-methoxyindole-3-ethanol]
- relative LC/MS peak area for 5-methoxytryptophol ([1]; 0 h, incubation by row: r7 1 μM Hepatocytes, r8 1 μM Stromal cells, r9 10 μM Hepatocytes, r10 10 μM Stromal cells): 100%
- relative LC/MS peak area for 5-methoxytryptophol ([1]; 1 h, as E141): 79% and 87%
- relative LC/MS peak area for 5-methoxytryptophol ([1]; 2 h, as E141): 57% and 81%
- metabolic turnover ([1]; in 24 h with hepatocytes): complete disappearance

Compound: CN(C)CCc1c[nH]c2ccc(O)cc12 [bufotenine]
- detection in human serum ([6]; after 5-MeO-DMT, in no case detected 15 minutes after administration): barely detected
- detection in serum and breastmilk ([2]; any time point after 5-MeO-DMT): not detected
- Bufotenine in Breastmilk ([2]; times by row as E172): BLQ (Below limit of quantification. The lower limit of quantification is 25 pg/ml for both 5-MeO-DMT and 5-MIAA in both serum and breastmilk; it is 25 pg/ml in urine for 5-MeO-DMT and 250 pg/ml for 5-MIAA in urine.)
- Bufotenine in Serum ([2]; times by row as E172): BLQ (Below limit of quantification. The lower limit of quantification is 25 pg/ml for both 5-MeO-DMT and 5-MIAA in both serum and breastmilk; it is 25 pg/ml in urine for 5-MeO-DMT and 250 pg/ml for 5-MIAA in urine.)
